Assay results: patent US5525626A (priority 1989, dated 1996)
pIC50: −log10 of the molar value.

What was measured:
Assay in all cases: 3H-thymidine assay
Format in all cases: cell-based
K-562 leukemic cells = details: Homo sapiens, K562
Procedure: (§1) The cell lines were cultivated as indicated in Example 1.
(§2) The antiproliferative effect of the 1,2-benzopyrone derivatives according to the invention on the tumor cell lines in each case was shown with the help of the ^3 H-thymidine insertion and with reference to growth curves.
(§3) In a 24-well-plate, in each case 10^4 cells of the line to be investigated were inoculated per well. Approximately 48 hours later the cells were half-confluent; the medium was then changed and replaced by a medium containing the active substance in question (cf Table 3). After a further 48 hours 0.25 μCi ^3 H-thymidine (Ammersham) was added to each well and the cells were incubated for a further 24 hours. Subsequently the cultures were washed twice with ice-cold PBS and the high-molecular-weight ^3 H-radioactivity was precipitated with 5% trichloroacetic acid for one hour at 4° C. After the washing of the cells in PBS the ^3 H-radioactivity was solubilized with 0.3M NaOH and measured in the counter. The growth-inhibition was determined by comparing the thymidine insertion of the cells treated with active substance with untreated cells.
(§4) The active substance concentration in each case was so chosen that ^3 H-thymidine insertion was 50% inhibited. The active substance concentrations used under this aspect for the active substances and cell lines in each case are given in table 4 below in μM/ml, […]

[1] = test system: Tp 410 N neuroblastoma cells; details: Homo sapiens, Neuroblastoma cell
[2] = test system: GV-1 prostate carcinoma cells
[3] = test system: Tp 483 MG glioblastoma cells
HCV cells = test system: HCV cells
[4] = test system: Z-R-75-1 breast cancer cells; details: Homo sapiens, ZR-75-1
CAKI-2 cells = details: Homo sapiens, CAKI-2
Procedure: as §1, §2
as §3, with “After a further 48 hours 0.25 μCi ^3 H-thymidine (Ammersham) was added to each well and the cells were incubated for a further 24 hours.” left out
as §4

Daudi leukemic cells = details: Homo sapiens
G-361 melanoma cells = details: Homo sapiens, G-361
[5] = 1 μM/ml, read-out: 3H-thymidine tracer (%) of control
[6] = 2 μM/ml, read-out: 3H-thymidine tracer (%) of control
[7] = 4 μM/ml, read-out: 3H-thymidine tracer (%) of control
[8] = 8 μM/ml, read-out: 3H-thymidine tracer (%) of control
[9] = 16 μM/ml, read-out: 3H-thymidine tracer (%) of control
[10] = 25 μM/ml, read-out: 3H-thymidine tracer (%) of control
[11] = 50 μM/ml, read-out: 3H-thymidine tracer (%) of control
[12] = 100 μM/ml, read-out: 3H-thymidine tracer (%) of control
[13] = 250 μM/ml, read-out: 3H-thymidine tracer (%) of control
[14] = 500 μM/ml, read-out: 3H-thymidine tracer (%) of control
[15] = Table 4, read-out: active substance concentration at which 3H-thymidine insertion was 50% inhibited
[16] = 1 μM/ml, read-out: 3H-thymidine insertion (%) of control
[17] = 2 μM/ml, read-out: 3H-thymidine insertion (%) of control
[18] = 4 μM/ml, read-out: 3H-thymidine insertion (%) of control
[19] = 8 μM/ml, read-out: 3H-thymidine insertion (%) of control
[20] = 16 μM/ml, read-out: 3H-thymidine insertion (%) of control
[21] = 25 μM/ml, read-out: 3H-thymidine insertion (%) of control
[22] = 50 μM/ml, read-out: 3H-thymidine insertion (%) of control
[23] = 100 μM/ml, read-out: 3H-thymidine insertion (%) of control
[24] = 250 μM/ml, read-out: 3H-thymidine insertion (%) of control
[25] = 500 μM/ml, read-out: 3H-thymidine insertion (%) of control
[26] = read-out: 3H-thymidine tracer (%) of control
[27] = Table 4, *: maximum usable dosage, no 50% inhibition, read-out: active substance concentration at which 3H-thymidine insertion was 50% inhibited

## O=c1ccc2cc(O)c(O)cc2o1 [Esculetin, 6,7-hydroxy-1,2-benzopyrone]
K-562 leukemic cells; [5]
  activity at 1 µM: 97%
K-562 leukemic cells; [6]
  activity at 2 µM: 95%
K-562 leukemic cells; [7]
  activity at 4 µM: 84%
K-562 leukemic cells; [8]
  activity at 8 µM: 77%
K-562 leukemic cells; [9]
  activity at 16 µM: 62%
K-562 leukemic cells; [10]
  activity at 25 µM: 58%
K-562 leukemic cells; [11]
  activity at 50 µM: 50%
K-562 leukemic cells; [12]
  activity at 100 µM: 47%
K-562 leukemic cells; [13]
  activity at 250 µM: 44%
K-562 leukemic cells; [14]
  activity at 500 µM: 31%
K-562 leukemic cells; [15]
  pIC50: 4.30
[1]; [16]
  activity at 1 µM: 94%
[1]; [17]
  activity at 2 µM: 86%
[1]; [18]
  activity at 4 µM: 75%
[1]; [19]
  activity at 8 µM: 69%
[1]; [20]
  activity at 16 µM: 64%
[1]; [21]
  activity at 25 µM: 48%
[1]; [22]
  activity at 50 µM: 42%
[1]; [23]
  activity at 100 µM: 40%
[1]; [24]
  activity at 250 µM: 34%
[1]; [25]
  activity at 500 µM: 29%
[1]; [15]
  pIC50: 4.60
[2]; [5]
  activity at 1 µM: 97%
[2]; [6]
  activity at 2 µM: 93%
[2]; [7]
  activity at 4 µM: 88%
[2]; [8]
  activity at 8 µM: 84%
[2]; [9]
  activity at 16 µM: 78%
[2]; [10]
  activity at 25 µM: 75%
[2]; [11]
  activity at 50 µM: 63%
[2]; [12]
  activity at 100 µM: 60%
[2]; [13]
  activity at 250 µM: 58%
[2]; [14]
  activity at 500 µM: 50%
[2]; [15]
  pIC50: 3.30
[3]; [16]
  activity at 1 µM: 98%
[3]; [17]
  activity at 2 µM: 94%
[3]; [18]
  activity at 4 µM: 85%
[3]; [19]
  activity at 8 µM: 77%
[3]; [20]
  activity at 16 µM: 73%
[3]; [21]
  activity at 25 µM: 69%
[3]; [22]
  activity at 50 µM: 62%
[3]; [23]
  activity at 100 µM: 55%
[3]; [24]
  activity at 250 µM: 39%
[3]; [25]
  activity at 500 µM: 28%
[3]; [15]
  pIC50: 3.82
HCV cells; [26]
  activity at 1 µM: 99%
  activity at 2 µM: 94%
  activity at 4 µM: 87%
  activity at 8 µM: 83%
  activity at 16 µM: 78%
  activity at 25 µM: 76%
  activity at 50 µM: 71%
  activity at 250 µM: 64%
  activity at 500 µM: 62%
HCV cells; read-out: active substance concentration at which 3H-thymidine insertion was 50% inhibited
  pIC50: < 3.30
[4]; [5]
  activity at 1 µM: 98%
[4]; [6]
  activity at 2 µM: 96%
[4]; [7]
  activity at 4 µM: 89%
[4]; [8]
  activity at 8 µM: 84%
[4]; [9]
  activity at 16 µM: 77%
[4]; [10]
  activity at 25 µM: 70%
[4]; [11]
  activity at 50 µM: 61%
[4]; [12]
  activity at 100 µM: 53%
[4]; [13]
  activity at 250 µM: 46%
[4]; [14]
  activity at 500 µM: 39%
[4]; [27]
  pIC50: 3.76
CAKI-2 cells; [5]
  activity at 1 µM: 98%
CAKI-2 cells; [6]
  activity at 2 µM: 94%
CAKI-2 cells; [7]
  activity at 4 µM: 90%
CAKI-2 cells; [8]
  activity at 8 µM: 87%
CAKI-2 cells; [9]
  activity at 16 µM: 82%
CAKI-2 cells; [10]
  activity at 25 µM: 69%
CAKI-2 cells; [11]
  activity at 50 µM: 65%
CAKI-2 cells; [12]
  activity at 100 µM: 54%
CAKI-2 cells; 150 μM/ml, read-out: 3H-thymidine tracer (%) of control
  activity at 150 µM: 53%
CAKI-2 cells; [14]
  activity at 500 µM: 50%
CAKI-2 cells; [27]
  pIC50: 3.30
Daudi leukemic cells; [5]
  activity at 1 µM: 94%
Daudi leukemic cells; [6]
  activity at 2 µM: 96%
Daudi leukemic cells; [7]
  activity at 4 µM: 83%
Daudi leukemic cells; [8]
  activity at 8 µM: 75%
Daudi leukemic cells; [9]
  activity at 16 µM: 69%
Daudi leukemic cells; [10]
  activity at 25 µM: 63%
Daudi leukemic cells; [11]
  activity at 50 µM: 61%
Daudi leukemic cells; [12]
  activity at 100 µM: 57%
Daudi leukemic cells; [13]
  activity at 250 µM: 54%
Daudi leukemic cells; [14]
  activity at 500 µM: 39%
Daudi leukemic cells; [15]
  pIC50: 3.60
G-361 melanoma cells; [5]
  activity at 1 µM: 97%
G-361 melanoma cells; [6]
  activity at 2 µM: 93%
G-361 melanoma cells; [7]
  activity at 4 µM: 90%
G-361 melanoma cells; [8]
  activity at 8 µM: 88%
G-361 melanoma cells; [9]
  activity at 16 µM: 72%
G-361 melanoma cells; [10]
  activity at 25 µM: 68%
G-361 melanoma cells; [11]
  activity at 50 µM: 60%
G-361 melanoma cells; [12]
  activity at 100 µM: 58%
G-361 melanoma cells; [13]
  activity at 250 µM: 52%
G-361 melanoma cells; [14]
  activity at 500 µM: 49%
G-361 melanoma cells; [27]
  pIC50: 3.30
